The text below walks through data of US9006257B2, “Bicyclic compounds as mPGES-1 inhibitors” (Glenmark Pharmaceuticals S.A., priority 2012, dated 2015).

The target in this assay is T1, Recombinant human mPGES-1 (Homo sapiens, UniProt O14684).
T1 construct: made in house; host or cells: CHO cells
T1 sequence (O14684 1-152): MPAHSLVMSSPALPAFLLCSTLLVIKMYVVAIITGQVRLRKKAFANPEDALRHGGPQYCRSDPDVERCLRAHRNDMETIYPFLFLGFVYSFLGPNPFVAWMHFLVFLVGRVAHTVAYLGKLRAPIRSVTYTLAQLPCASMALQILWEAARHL
The assay is described as follows: In-vitro mPGES-1 inhibitor screening (inhibition of PGE2 formation from PGH2, HTRF detection). The class given is biochemical. Particulars: for inhibition at 1 µM: 1 μM test compound, read-out: Percentage inhibition at 1 μM; for inhibition at 1 µM / inhibition at 10 µM: crude microsomal fraction, 15 μM PGH2; for inhibition at 10 µM: 10 μM test compound, read-out: Percentage inhibition at 10 μM; for IC50: class symbol, concentration response curve. The method in brief:
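PGE2 formation measured by HTRF after 1 min reaction with 15 μM PGH2, stopped with stannous chloride (11 mg/ml). Beforehand, compound and crude CHO-expressed human mPGES-1 microsomes (40-60 μg/mL) sat 10 min in phosphate/EDTA buffer with 2.5 mM GSH (0.5% DMSO final). IC50 fitted from concentration-response of % inhibition.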
(In general: Time-resolved FRET reads energy transfer from a long-lived donor to a nearby acceptor.)

Regarding `CC(C)(C)C(=O)NCc1ccc(Cl)c(C(=O)Nc2cccc3c(N[C@H]4CC[C@H](C(F)(F)F)CC4)nccc23)c1F` [Example-36, 6-Chloro-2-fluoro-3-(pivalamidomethyl)-N-(1-(((1r,4r)-4-(trifluoromethyl)cyclohexyl)amino)isoquinolin-5-yl)benzamide], the inhibition (as a rule, how much of the control response was suppressed) at 1 µM is 98.1%; the inhibition at 10 µM amounted to 99.1%; the IC50 (usually the concentration that inhibits the measured activity by half) was below 0.05 µM.
On the same counts, the results for `O=C(Nc1cccc2c(Nc3cccc(C(F)(F)F)c3)ncnc12)c1c(Cl)ccc(CNC(=O)[C@@H]2CCCO2)c1F` [Example-23, (S)—N-(4-Chloro-2-fluoro-3-((4-((3-(trifluoromethyl)phenyl)amino)quinazolin-8-yl)carbamoyl)benzyl)tetrahydrofuran-2-carboxamide] are 95%, 94.9% and below 0.05 µM.
On the same counts, the results for `Cc1ccc(CNC(=O)C(C)(C)C)c(C)c1C(=O)Nc1cccc2c(Nc3cccc(C(F)(F)F)c3)nccc12` [Example-3, 2,6-Dimethyl-3-(pivalamidomethyl)-N-(1-((3-(trifluoromethyl)phenyl)amino)isoquinolin-5-yl)benzamide] are 96%, 98.1% and below 0.05 µM.
On the same counts, the results for `CC(C)(C)C(=O)NCc1ccc(Cl)c(C(=O)Nc2cccc3c(Nc4ccc(C(F)(F)F)cc4F)ncnc23)c1F` [Example-29, 6-Chloro-2-fluoro-N-(4-((2-fluoro-4-(trifluoromethyl)phenyl)amino)quinazolin-8-yl)-3-(pivalamidomethyl)benzamide] are 99%, 99.8% and below 0.05 µM.
As to `CC(C)(C)C(=O)NCc1ccc(Cl)c(C(=O)Nc2cccc3c(Nc4ccc(F)c(C(F)(F)F)c4)ncnc23)c1F` [Example-25, 6-Chloro-2-fluoro-N-(4-((4-fluoro-3-(trifluoromethyl)phenyl)amino)quinazolin-8-yl)-3-(pivalamidomethyl)benzamide], the inhibition at 1 µM worked out at 97.7%, the inhibition at 10 µM stood at 98.3% and the 50% inhibitory concentration (IC50) is below 0.05 µM.
On the same counts, the results for `CC(C)(C)C(=O)NCc1ccc(Cl)c(C(=O)Nc2cccc3cccnc23)c1F` [Example-55, 6-Chloro-2-fluoro-3-(pivalamidomethyl)-N-(quinolin-8-yl)benzamide] are 94.1%, 99.8% and below 0.05 µM.
On the same counts, the results for `CC(C)(C)C(=O)NCc1ccc(Cl)c(C(=O)Nc2cccc3c(Nc4ccc(C(F)(F)F)nc4)ncnc23)c1F` [Example-30, 6-Chloro-2-fluoro-3-(pivalamidomethyl)-N-(4-((6-(trifluoromethyl)pyridin-3-yl)amino)quinazolin-8-yl)benzamide] are 97.4%, 99.1% and below 0.05 µM.
On the same counts, the results for `CC(C)(C)C(=O)NCc1ccc(Cl)c(C(=O)Nc2cccc3c(Nc4cccc(C(F)(F)F)c4)ccnc23)c1F` [Example-31, 6-Chloro-2-fluoro-3-(pivalamidomethyl)-N-(4-((3-(trifluoromethyl)phenyl)amino)quinolin-8-yl)benzamide] are 98.7%, 98.7% and below 0.05 µM.
Take `CCOc1ncnc2c(NC(=O)c3c(Cl)ccc(CNC(=O)C(C)(C)C)c3F)cccc12` [Example-43, 6-Chloro-N-(4-ethoxyquinazolin-8-yl)-2-fluoro-3-(pivalamidomethyl)benzamide]: the inhibition at 1 µM is 98.4%, the inhibition at 10 µM was found to be 99.9% and the IC50 was below 0.05 µM.
On the same counts, the results for `CC(C)C(=O)NCc1ccc(Cl)c(C(=O)Nc2cccc3c(NC(C)(C)C)ncnc23)c1F` [Example-70, N-(4-(tert-Butylamino)quinazolin-8-yl)-6-chloro-2-fluoro-3-(isobutyramidomethyl)benzamide] are 100%, 98.8% and below 0.05 µM.
As for `CC(C)(C)C(=O)NCc1ccc(Cl)c(C(=O)Nc2cccc3c(Oc4cccc(C(F)(F)F)c4)ccnc23)n1` [Example-17, 3-Chloro-6-(pivalamidomethyl)-N-(4-(3-(trifluoromethyl)phenoxy)quinolin-8-yl)picolinamide], the inhibition at 1 µM stood at 94.3%, the inhibition at 10 µM is 93.9% and the IC50 is below 0.05 µM.
On the same counts, the results for `CC(C)(C)C(=O)NCc1ccc(Cl)c(C(=O)Nc2cccc3c(O[C@H]4CC[C@H](C(F)(F)F)CC4)ncnc23)c1` [Example-39, 2-Chloro-5-(pivalamidomethyl)-N-(4-(((1r,4r)-4-(trifluoromethyl)cyclohexyl)oxy)quinazolin-8-yl)benzamide] are 98%, 99.5% and below 0.05 µM.
On the same counts, the results for `CC(C)(C)C(=O)NCc1ccc(Cl)c(C(=O)Nc2cccc3c(O[C@H]4CC[C@@H](C(F)(F)F)CC4)ncnc23)c1F` [Example-26, 6-Chloro-2-fluoro-3-(pivalamidomethyl)-N-(4-(((1s,4s)-4-(trifluoromethyl)cyclohexyl)oxy)quinazolin-8-yl)benzamide] are 93.4%, 93.1% and below 0.05 µM.
Consider `Cc1nc(Nc2cccc(C(F)(F)F)c2)c2cccc(NC(=O)c3c(Cl)ccc(CNC(=O)C(C)(C)C)c3F)c2n1` [Example-33, 6-Chloro-2-fluoro-N-(2-methyl-4-((3-(trifluoromethyl)phenyl)amino)quinazolin-8-yl)-3-(pivalamidomethyl)benzamide], for which the inhibition at 1 µM was found to be 95.5%, the inhibition at 10 µM amounted to 97.2% and the IC50 is below 0.05 µM.
On the same counts, the results for `CC(C)(CO)C(=O)NCc1ccc(Cl)c(C(=O)Nc2cccc3c(Oc4cccc(C(F)(F)F)c4)ncnc23)c1F` [Example-66, 6-Chloro-2-fluoro-3-((3-hydroxy-2,2-dimethylpropanamido)methyl)-N-(4-(3-(trifluoromethyl)phenoxy)quinazolin-8-yl)benzamide] are 96.7%, 96.8% and below 0.05 µM.
`CC(C)Nc1ncnc2c(NC(=O)c3cc(CNC(=O)C(C)C)cnc3C(F)F)cccc12` [Example-76, 2-(Difluoromethyl)-5-(isobutyramidomethyl)-N-(4-(isopropylamino)quinazolin-8-yl)nicotinamide]: the inhibition at 1 µM is 83.5%, the inhibition at 10 µM worked out at 93.4% and the 50% inhibitory concentration (IC50) lay within 0.05 to 0.1 µM.
On the same counts, the results for `CC1(C)CCC(Nc2nc(C(F)(F)F)nc3c(NC(=O)c4c(Cl)ccc(CNC(=O)C(C)(C)C)c4F)cccc23)CC1` [Example-32, 6-Chloro-N-(4-((4,4-dimethylcyclohexyl)amino)-2-(trifluoromethyl)quinazolin-8-yl)-2-fluoro-3-(pivalamidomethyl)benzamide] are 94.5%, 95.9% and below 0.05 µM.
On the same counts, the results for `CN(C)c1ncnc2c(NC(=O)c3c(Cl)ccc(CNC(=O)C(C)(C)C)c3F)cccc12` [Example-61, 6-Chloro-N-(4-(dimethylamino)quinazolin-8-yl)-2-fluoro-3-(pivalamidomethyl)benzamide] are 88.3%, 97.2% and above 0.1 µM.
On the same counts, the results for `CC(C)(C)C(=O)NCc1ccc(Cl)c(C(=O)Nc2cccc3c(Oc4cccc(C(F)(F)F)c4)ncnc23)c1F` [Example-11, 6-Chloro-2-fluoro-3-(pivalamidomethyl)-N-(4-(3-(trifluoromethyl)phenoxy)quinazolin-8-yl)benzamide] are 97.4%, 90.7% and below 0.05 µM.
In the case of `CC(C)(C)C(=O)NCc1ccc(Cl)c(C(=O)Nc2cccc3c(Oc4ccc(C(F)(F)F)cc4)nccc23)c1` [Example-46, 2-Chloro-5-(pivalamidomethyl)-N-(1-(4-(trifluoromethyl)phenoxy)isoquinolin-5-yl)benzamide], the inhibition at 1 µM turned out to be 89.4%, the inhibition at 10 µM was determined as 97.7% and the IC50 was below 0.05 µM.
On the same counts, the results for `Cc1ccc2c(Nc3cccc(C(F)(F)F)c3)ncnc2c1NC(=O)c1c(Cl)ccc(CNC(=O)C(C)(C)C)c1F` [Example-42, 6-Chloro-2-fluoro-N-(7-methyl-4-((3-(trifluoromethyl)phenyl)amino)quinazolin-8-yl)-3-(pivalamidomethyl)benzamide] are 96.5%, 99.6% and below 0.05 µM.
For the compound `CC(C)Oc1ncnc2c(NC(=O)c3c(Cl)ccc(CNC(=O)C(C)(C)C)c3F)cccc12` [Example-59, 6-Chloro-2-fluoro-N-(4-isopropoxyquinazolin-8-yl)-3-(pivalamidomethyl)benzamide], the inhibition at 1 µM is 97.5%, the inhibition at 10 µM turned out to be 99.4% and the IC50 was below 0.05 µM.
On to `CC(C)(C)C(=O)NCc1ccc(Cl)c(C(=O)Nc2cccc3c(Nc4cc(C(F)(F)F)ccc4F)ncnc23)c1F` [Example-21, 6-Chloro-2-fluoro-N-(4-((2-fluoro-5-(trifluoromethyl)phenyl)amino)quinazolin-8-yl)-3-(pivalamidomethyl)benzamide], for which the inhibition at 1 µM is 97.3%, the inhibition at 10 µM worked out at 97.2% and the IC50 was below 0.05 µM.
